Measured values reported in patent publication US8314093B2, “2,4-pyrimidinediamine compounds for treating or preventing autoimmune diseases” (Rigel Pharmaceuticals, Inc., priority 2006, dated 2012).

System: cultured human mast cells (CHMC), IgE-induced degranulation
Assay: LD Tryptase assay: CHMC low cell density IgE activation, tryptase release
Assay type: cell-based
Details: anti-IgE stimulation, 8 pt
Experimental: Inhibition of degranulation is measured at both low and high cell density by quantifying the release of the granule specific factors tryptase, histamine and hexosaminidase. Inhibition of release and/or synthesis of lipid mediators is assessed by measuring the release of leukotriene LTC4 and inhibition of release and/or synthesis of cytokines is monitored by quantifying TNF-α, IL-6 and IL-13. Tryptase and hexosaminidase are quantified using fluorogenic substrates as described in their respective examples. Histamine, TNFα, IL-6, IL-13 and LTC4 are quantified using the following commercial ELISA kits: histamine (Immunotech #2015, Beckman Coulter), TNFα (Biosource #KHC3011), IL-6 (Biosource #KMC0061), IL-13 (Biosource #KHC0132) and LTC4 (Cayman Chemical #520211). The protocols of the various assays are provided below.
CHMC Low Cell Density IgE Activation: Tryptase and LTC4 Assays
To duplicate 96-well U-bottom plates (Costar 3799) add 65 ul of compound dilutions or control samples that have been prepared in MT [137 mM NaCl, 2.7 mM KCl, 1.8 mM CaCl2, 1.0 mM MgCl2, 5.6 mM Glucose, 20 mM Hepes (pH 7.4), 0.1% Bovine Serum Albumin, (Sigma A4503)] containing 2% MeOH and 1% DMSO. Pellet CHMC cells (980 rpm, 10 min) and resuspend in pre-warmed MT. Add 65 ul of cells to each 96-well plate. Depending on the degranulation activity for each particular CHMC donor, load 1000-1500 cells/well. Mix four times followed by a 1 hr incubation at 37° C. During the 1 hr incubation, prepare 6× anti-IgE solution [rabbit anti-human IgE (1 mg/ml, Bethyl Laboratories A80-109A) diluted 1:167 in MT buffer]. Stimulate cells by adding 25 ul of 6× anti-IgE solution to the appropriate plates. Add 25 ul MT to un-stimulated control wells. Mix twice following addition of the anti-IgE. Incubate at 37° C. for 30 minutes. During the 30 minute incubation, dilute the 20 mM tryptase substrate stock solution [(Z-Ala-Lys-Arg-AMC 2TFA; Enzyme Systems Products, #AMC-246)] 1:2000 in tryptase assay buffer [0.1 M Hepes (pH 7.5), 10% w/v Glycerol, 10 uM Heparin (Sigma H-4898) 0.01% NaN3]. Spin plates at 1000 rpm for 10 min to pellet cells. Transfer 25 ul of supernatant to a 96-well black bottom plate and add 100 ul of freshly diluted tryptase substrate solution to each well. Incubate plates at room temperature for 30 min. Read the optical density of the plates at 355 nm/460 nm on a spectrophotometric plate reader.

`COc1ccc(CN2C(=O)C(C)Sc3ccc(Nc4nc(Nc5cc(O)c(OC)c(OC)c5)ncc4F)cc32)cc1` (racemic) [Example 10, (R/S)-5-Fluoro-N2-(3-hydroxy-4,5-dimethoxyphenyl)-N4-[2-methyl-3-oxo-4-(4-methoxybenzyl)-benzo[1,4]thiazin-6-yl]-2,4-pyrimidinediamine] and `COc1ccc(CN2C(=O)C(C)Oc3ccc(Nc4nc(Nc5cc(O)c(OC)c(OC)c5)ncc4F)cc32)cc1` (racemic) [Example 9, (R/S)-5-Fluoro-N2-(3-hydroxy-4,5-dimethoxyphenyl)-N4-[2-methyl-3-oxo-4-(4-methoxybenzyl)-benz[1,4]oxazin-6-yl]-2,4-pyrimidinediamine] cannot be ordered by IC50: < 5 µM for the first, < 5 µM for the second.

`COc1cc(Nc2ncc(F)c(Nc3ccc4c(n3)NCC(C)(C)O4)n2)cc(O)c1OC` [Example 13, N4-(3,4-Dihydro-2H-2,2-dimethyl-5-pyrido[1,4]oxazin-6-yl)-N2-[3,4-dimethoxyphenyl-5-hydroxyphenyl]-5-fluoro-2,4-pyrimidinediamine] and `COc1cc(Nc2ncc(F)c(Nc3ccc4c(n3)NC(=O)C(C)(C)O4)n2)cc(O)c1OC` [Example 4, N4-[2,2-Dimethyl-3-oxo-pyrid[1,4]oxazin-6-yl]-5-fluoro-N2-(3-hydroxy-4,5-dimethoxyphenyl)-2,4-pyrimidinediamine] cannot be ordered by IC50: < 1 µM for the first, < 1 µM for the second.

`COc1cc(Nc2ncc(F)c(Nc3ccc4c(c3)NC(=O)C(C)(C)O4)n2)cc(O)c1OC` [Example 3, N4-[2,2-Dimethyl-3-oxo-benz[1,4]oxazin-6-yl]-5-fluoro-N2-(3-hydroxy-4,5-dimethoxyphenyl)-2,4-pyrimidinediamine] and `COc1cc(Nc2ncc(F)c(Nc3ccc4c(c3)NC(=O)C(F)(F)O4)n2)cc(O)c1OC` [Example 6, N4-[2,2-Difluoro-3-oxo-benz[1,4]oxazin-6-yl]-5-fluoro-N2-(3-hydroxy-4,5-dimethoxyphenyl)-2,4-pyrimidinediamine] cannot be ordered by IC50: < 1 µM for the first, < 1 µM for the second.

`COc1cc(Nc2ncc(F)c(Nc3ccc4c(c3)NC(=O)CO4)n2)cc(O)c1OC` [Example 5, 5-Fluoro-N2-(3-hydroxy-4,5-dimethoxyphenyl)-N4-[3-oxo-benz[1,4]oxazin-6-yl]-2,4-pyrimidinediamine] and `COc1cc(Nc2ncc(F)c(Nc3ccc4c(c3)NC(=O)CS4)n2)cc(O)c1OC` [Example 1, 5-Fluoro-N2-(3-hydroxy-4,5-dimethoxyphenyl)-N4-[3-oxo-benzo[1,4]thiazin-6-yl]-2,4-pyrimidinediamine] cannot be ordered by IC50: < 1 µM for the first, < 1 µM for the second.

`COc1cc(Nc2ncc(F)c(Nc3ccc4c(c3)NC(=O)C(C)(C)S4)n2)cc(O)c1OC` [Example 2, N4-[2,2-Dimethyl-3-oxo-benzo[1,4]thiazin-6-yl]-5-fluoro-N2-(3-hydroxy-4,5-dimethoxyphenyl)-2,4-pyrimidinediamine] and `COc1cc(Nc2ncc(F)c(Nc3ccc4c(c3)C(=O)NC(=O)C4(C)C)n2)cc(O)c1OC` [Example 8, 5-Fluoro-N2-(3-hydroxy-4,5-dimethoxyphenyl)-N4-(1,3-(2H)-4,4-dimethylisoquinolinedione-7-yl)-2,4-pyrimidinediamine] cannot be ordered by IC50: < 1 µM for the first, < 1 µM for the second.

`COc1cc(Nc2ncc(F)c(Nc3ccc4c(c3)N(C)C(=O)CS4)n2)cc(O)c1OC` [Example 12, 5-Fluoro-N2-(3-hydroxy-4,5-dimethoxyphenyl)-N4-(4-methyl-3-oxo-benzo[1,4]thiazin-6-yl)-2,4-pyrimidinediamine] and `COc1cc(Nc2ncc(F)c(Nc3ccc4c(c3)N(C)C(=O)C(C)(C)S4(=O)=O)n2)cc(O)c1OC` [Example 11, 5-Fluoro-N2-(3-hydroxy-4,5-dimethoxyphenyl)-N4-(2,2,4-trimethyl-1,1,3-trioxo-benzo[1,4]thiazin-6-yl)-2,4-pyrimidinediamine] cannot be ordered by IC50: < 1 µM for the first, < 1 µM for the second.

`COc1cc(Nc2ncc(F)c(Nc3ccc4c(c3)N(Cc3ccccn3)C(=O)CO4)n2)cc(O)c1OC` [Example 7, 5-Fluoro-N2-(3-hydroxy-4,5-dimethoxyphenyl)-N4[3-oxo-4-(2-pyridylmethyl)-benz[1,4]oxazin-6-yl]-2,4-pyrimidinediamine] was tested, and the IC50 was < 5 µM.
